Data published in ChEMBL document CHEMBL1129656, “A study of the active site of influenza virus sialidase: an approach to the rational design of novel anti-influenza drugs” (J Med Chem, 1996).
pKi: −log10 of the molar value.

Test: Compound was tested for the inhibition of influenza virus sialidase using 2'-(4-methylumbelliferyl)-N-acetylneuraminic acid substrate
Parameters: species or system unidentified influenza virus

SMILES	pKi
CC(=O)NC1C(O)CC(O)(C(=O)O)OC1[C@H](O)[C@H](O)CO (stereo not given in full)	3.00
CC(=O)N[C@@H]1C(NC(=N)N)C=C(C(=O)O)OC1[C@H](O)[C@H](O)CO (stereo not given in full)	10.52
CC(=O)NC1C(O)C=C(C(=O)O)OC1[C@H](O)[C@H](O)CO (stereo not given in full)	5.40
CC(=O)N[C@H]1[C@H]([C@H](O)[C@H](O)CO)OC(C(=O)O)=C[C@H]1N	7.40
CC(=O)N[C@@H]1C(N)C=C(C(=O)O)O[C@H]1[C@H](O)[C@H](O)CO (single isomer, unassigned)	6.52
